We go through 16 compounds from patent US12274898B2, “Substituted benzodiazepines as antibody-drug conjugates” (priority 2018, dated 2025).

Non-standard residues stand in square brackets, D forms with d. Residues, ends and D or L forms follow the SMILES beside them. Dolaproine = CO[C@@H]([C@@H]1CCCN1)[C@@H](C)C(=O)O; Dil = CC[C@H](C)[C@H](NC)[C@@H](CC(=O)O)OC; NMeV = CN[C@H](C(=O)O)C(C)C

The test system of data set [1] is NCI-N87 cancer cells. Kind of data set: In vitro analysis of benzodiazepine dimer derivatives, cell viability by MTT assay. The class given is cell-based. Particulars: 6 days incubation, sigmoidal dose-response fit. As to the method:
NCI-N87 cancer cells were seeded into 24-well plates at 25×10^3 cells/1 mL medium/well. The plates were incubated for 24 hours at 37° C. in a humidified 5% CO2-in-air atmosphere. Benzodiazepine dimer derivatives were dissolved initially in DMSO at a concentration of 10 mM. Serial dilutions were made in DMSO. The series of compound dilutions in DMSO were added to triplicate wells of 24-well plates at 5 μL per well. Three wells on each individual plate received 5 μL of DMSO without compound as controls. The final concentration of DMSO per well was 0.5%. The plates were incubated for 6 days at 37° C. in a humidified 5% CO2-in-air atmosphere. Cell viability was determined by the MTT assay and IC50 was generated using a sigmoidal dose-response nonlinear regression curve fit (GraphPad Software Inc.). Results thereof are shown in FIG. 1, FIG. 2, FIG. 3, and Table 2.
Background: Tetrazolium assays rely on reduction of a dye to a coloured formazan, in cell work by metabolically active cells.

Data set [2] in a line: Solubility test: relative solubility by retention time on analytical HPLC. In kind it is physicochemical. Particulars: HPLC retention times under acidic (0.1% TFA); RP-C18, 5→95% ACN in water over 15 minutes; measure of relative solubility. As to the method: A solubility study was conducted to check the relative solubility of D-102, D-103, D-104, D-105, D-106, and D-107 on the retention time using analytical HPLC.

Data set [3] deals with NCI-N87 cancer cells. Kind of data set: In vitro analysis of protein-drug conjugates (cell cytotoxicity of antibody-drug conjugate), MTT assay. In kind it is cell-based. Particulars: ADCs, 6 days incubation. On the procedure:
NCI-N87cancer cells were seeded in 96-well plates at a density 5000 cells per well in 100 μL of medium, and cultured for 24 hours. The four compounds ADCs in Example 77 were treated by serial dilutions of 1:4 from 50 nM to 0.0003 nM, and the antibody drug conjugate T-DM1 was treated by serial dilutions of 1:4 from 50 nM to 0.0007 nM. The series of compound dilutions in DMSO were added to triplicate wells of […] at 5 μL per well. Three wells on each individual plate received 5 μL of DMSO without compound as controls. The final concentration of DMSO per well was 0.5%. The plates were incubated for 6 days at 37° C. in a humidified 5% CO2-in-air atmosphere. Cell viability was determined by the MTT assay and IC50 was generated using a sigmoidal dose-response nonlinear regression curve fit (GraphPad software Inc.)
Results of in vitro analysis of compounds T-1-AB, T-2-AB, T-3-AB, and T-4-AB, are shown in FIG. 4, FIG. 5, FIG. 6, FIG. 7, and Table 4.

Regarding `COc1cc2c(cc1OCc1cc(O)cc(COc3cc4c(cc3OC)C(=O)N3Cc5ccccc5C[C@H]3C=N4)c1)N=C[C@@H]1Cc3ccccc3CN1C2=O` [Ref-3, reference compound], the IC50 (usually the point on the concentration scale where inhibition reaches its midpoint) in the data set on NCI-N87 cancer cells [1] (Homo sapiens, 144 h) came out at 0.025 ± 0.018 nM. Moreover, in data set [2], the “Retention time” value was found to be 10.00 min. The like results for `COc1cc2c(cc1OCc1cc(COc3cc4c(cc3OC)C(=O)N3Cc5ccccc5C[C@H]3C=N4)cc(CN(C)C)c1)N=C[C@@H]1Cc3ccccc3CN1C2=O` [Ref-1, reference compound] were, in that order, 0.013 ± 0.003 nM and 9.30 min.

In the data set on NCI-N87 cancer cells [1] (Homo sapiens, 144 h), `COc1cc2c(cc1OCc1cc(O)cc(COc3cc4c(cc3OC)C(=O)N3Cc5ccsc5C[C@H]3C=N4)c1)N=C[C@@H]1Cc3sccc3CN1C2=O` [Compound D-103] showed an IC50 of 0.0472 ± 0.01 nM. The “Retention time” value in data set [2] was found to be 9.75 min. In turn, `COc1cc2c(cc1OCc1cc(O)cc(COc3cc4c(cc3OC)C(=O)N3Cc5c(ncn5C)C[C@H]3C=N4)c1)N=C[C@@H]1Cc3ncn(C)c3CN1C2=O` [Compound D-101] came in with an IC50 with NCI-N87 cancer cells [1] (Homo sapiens, 144 h) of 17.8 ± 6.6 nM. On to `COc1cc2c(cc1OCc1cc(COc3cc4c(cc3OC)C(=O)N3Cc5ccsc5C[C@H]3C=N4)cc(CN(C)C)c1)N=C[C@@H]1Cc3sccc3CN1C2=O` [Compound D-104], for which, in the data set on NCI-N87 cancer cells [1] (Homo sapiens, 144 h), half-maximal inhibition (IC50) was put at 0.013 ± 0.003 nM. Besides, the “Retention time” value in data set [2] was 8.98 min. On to `CC[C@H](C)[C@@H]([C@@H](CC(=O)N1CCC[C@H]1[C@H](OC)[C@@H](C)C(=O)N[C@@H](Cc1ccccc1)C(=O)OC)OC)N(C)C(=O)[C@@H](NC(=O)[C@@H](NC)C(C)C)C(C)C` [MMAF-OMe, reference compound] (H-[NMeV]V[Dil][Dolaproine]F-OMe), for which the IC50 with NCI-N87 cancer cells [1] is 0.182 nM. In the data set with NCI-N87 cancer cells [1] (Homo sapiens, 144 h), `COc1cc2c(cc1OCc1cc(COc3cc4c(cc3OC)C(=O)N3Cc5cc(Br)sc5C[C@H]3C=N4)cc(CN(C)C)c1)N=C[C@@H]1Cc3sc(Br)cc3CN1C2=O` [Compound D-109] showed an IC50 of 0.025 ± 0.01 nM. The same measure, in the same setting: as for `COc1ccc(C2=CN3C(=O)c4cc(OC)c(OCc5cc(COc6cc7c(cc6OC)C(=O)N6Cc8ccsc8C[C@H]6C=N7)cc(CN(C)C)c5)cc4N=C[C@@H]3C2)cc1` [Compound D-114], the figure is 1.89 nM. In the data set on NCI-N87 cancer cells [3], T-DM1 returned an IC50 of 0.213 ± 0.12 nM. For `COc1cc2c(cc1OCc1cccc(COc3cc4c(cc3OC)C(=O)N3Cc5ccccc5C[C@H]3C=N4)c1)N=C[C@@H]1Cc3ccccc3CN1C2=O` [Ref-2, reference compound], half-maximal inhibition in the data set on NCI-N87 cancer cells [1] (Homo sapiens, 144 h) (IC50) required 0.0089 ± 0.002 nM. The same measure, in the same setting: as for `COc1cc2c(cc1OCc1cc(COc3cc4c(cc3OC)C(=O)N3Cc5sccc5C[C@H]3C=N4)cc(CN(C)C)c1)N=C[C@@H]1Cc3ccsc3CN1C2=O` [Compound D-108], the figure is 0.008 ± 0.001 nM. The same measure, in the same setting: next, `COc1cc2c(cc1OCc1cc(O)cc(COc3cc4c(cc3OC)C(=O)N3Cc5c(n(C)c[n+]5C)C[C@H]3C=N4)c1)N=C[C@@H]1Cc3c([n+](C)cn3C)CN1C2=O` [Compound D-110]: 588 ± 223 nM. In the case of `COc1cc2c(cc1OCc1cc(COc3cc4c(cc3OC)C(=O)N3Cc5ccoc5C[C@H]3C=N4)cc(CN(C)C)c1)N=C[C@@H]1Cc3occc3CN1C2=O` [Compound D-107], the IC50 with NCI-N87 cancer cells [1] (Homo sapiens, 144 h) came to 0.013 ± 0.002 nM. Moreover, the “Retention time” value in data set [2] is on record as 8.60 min. The like results for `COc1cc2c(cc1OCc1cc(O)cc(COc3cc4c(cc3OC)C(=O)N3Cc5ncn(C)c5C[C@H]3C=N4)c1)N=C[C@@H]1Cc3ccccc3CN1C2=O` [Compound D-105] were, in that order, 0.933 ± 0.344 nM and 8.05 min. The like results for `COc1cc2c(cc1OCc1cc(COc3cc4c(cc3OC)C(=O)N3Cc5ncn(C)c5C[C@H]3C=N4)cc(CN(C)C)c1)N=C[C@@H]1Cc3c(ncn3C)CN1C2=O` [Compound D-106] were, in that order, 28.9 ± 15 nM and 6.02 min. The like results for `COc1cc2c(cc1OCc1cc(O)cc(COc3cc4c(cc3OC)C(=O)N3Cc5ncn(C)c5C[C@H]3C=N4)c1)N=C[C@@H]1Cc3c(ncn3C)CN1C2=O` [Compound D-102] were, in that order, 4.99 ± 0.785 nM and 6.50 min.
